Measurements taken from patent US20190210973A1, “COMPOUNDS AND METHODS FOR TREATMENT OF CYSTIC FIBROSIS” (The Curators of the University of Missouri, priority 2018, published 2019).
Values joined by “and” are separate entries in the source; they are usually repeats but may differ in a detail not shown here. Equal entries are not always repeated.

What was measured:
delF508-CFTR [1] = target: T1, delF508-CFTR (Homo sapiens, UniProt P13569, DEL508-508); parameters: delF508 stably-transfected C127 cells were cultured in DMEM with 10% FBS in 6-well plates; expressed in transfected cells; host or cells: C127 cells stably expressing delF508-CFTR; conditions: Kopeikin et al., J. Cys. Fibro. 2014; cited from earlier work
T1 sequence (P13569 with tags, fused parts or gaps DEL508-508): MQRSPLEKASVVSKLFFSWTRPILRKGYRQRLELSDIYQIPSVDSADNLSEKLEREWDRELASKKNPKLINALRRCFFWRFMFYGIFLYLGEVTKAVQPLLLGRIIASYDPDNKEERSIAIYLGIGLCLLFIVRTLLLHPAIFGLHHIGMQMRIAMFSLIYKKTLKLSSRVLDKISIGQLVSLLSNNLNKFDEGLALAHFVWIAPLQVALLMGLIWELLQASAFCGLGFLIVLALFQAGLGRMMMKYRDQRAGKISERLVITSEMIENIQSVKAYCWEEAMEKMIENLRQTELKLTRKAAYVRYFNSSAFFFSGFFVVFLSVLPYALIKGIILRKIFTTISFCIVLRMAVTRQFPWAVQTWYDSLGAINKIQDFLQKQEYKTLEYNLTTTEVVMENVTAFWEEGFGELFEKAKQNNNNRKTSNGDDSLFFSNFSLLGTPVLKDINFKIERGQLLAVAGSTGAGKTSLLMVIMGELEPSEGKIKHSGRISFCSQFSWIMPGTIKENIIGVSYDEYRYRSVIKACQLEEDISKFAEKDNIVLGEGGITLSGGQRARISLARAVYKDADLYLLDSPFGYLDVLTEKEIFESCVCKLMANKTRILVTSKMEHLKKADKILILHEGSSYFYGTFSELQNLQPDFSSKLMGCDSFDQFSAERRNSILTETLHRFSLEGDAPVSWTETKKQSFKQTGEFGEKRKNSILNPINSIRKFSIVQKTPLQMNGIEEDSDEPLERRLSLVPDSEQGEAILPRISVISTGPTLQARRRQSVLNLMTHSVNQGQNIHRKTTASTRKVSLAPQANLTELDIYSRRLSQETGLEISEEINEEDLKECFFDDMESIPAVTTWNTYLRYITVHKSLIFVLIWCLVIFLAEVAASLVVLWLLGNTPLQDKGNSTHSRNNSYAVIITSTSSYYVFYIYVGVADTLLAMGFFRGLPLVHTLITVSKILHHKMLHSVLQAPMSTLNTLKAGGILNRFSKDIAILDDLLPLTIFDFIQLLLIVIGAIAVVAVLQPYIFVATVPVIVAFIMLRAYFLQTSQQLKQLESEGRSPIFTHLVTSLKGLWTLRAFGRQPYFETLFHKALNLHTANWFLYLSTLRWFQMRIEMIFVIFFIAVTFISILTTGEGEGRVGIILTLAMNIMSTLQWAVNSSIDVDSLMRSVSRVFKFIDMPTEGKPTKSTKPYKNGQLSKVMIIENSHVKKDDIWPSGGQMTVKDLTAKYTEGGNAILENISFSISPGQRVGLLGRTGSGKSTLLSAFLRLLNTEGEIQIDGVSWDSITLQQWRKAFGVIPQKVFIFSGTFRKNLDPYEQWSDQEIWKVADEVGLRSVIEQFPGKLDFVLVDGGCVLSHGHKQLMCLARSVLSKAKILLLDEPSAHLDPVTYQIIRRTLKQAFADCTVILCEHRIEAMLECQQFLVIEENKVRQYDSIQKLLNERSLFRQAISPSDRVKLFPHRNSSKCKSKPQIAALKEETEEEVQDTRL

delF508-CFTR [2] = target: T1, delF508-CFTR; assay: Patch-clamp recording of delF508-CFTR currents in excised inside-out patches of transfected CHO cells; assay type: cell-based
Excerpt: (§1) Patch-clamp is considered the gold standard for assessing directly ion channel function in real time. By attaching a glass microelectrode on the surface of a cell, it is possible to record the currents generated by channels proteins that are present in this tiny “patch” of cell membranes. Since millions of ions pass through a single ion channel pore per second, the resulting microscopic currents from a single channel protein molecule can be detected with modem patch-clamp amplifiers. As ion channels (a conductor in electricity term) are arranged in parallel in the cell membrane, it is also possible to assay a group of ion channels by monitoring macroscopic currents representing the sum of currents from individual channels. Microscopic recordings allow artisans to examine exquisitely the effects of compounds on the Po and kinetic parameters of CFTR channels; whereas macroscopic recordings provide an assay not only to quantify the overall effects of compounds on N×Po×i, but also monitor the stability of the CFTR currents in real time.
(§2) Chinese hamster ovary (CHO) cells were grown at 37° C. in Dulbecco's modified Eagle's medium supplemented with 10% fetal bovine serum. Cells were subcultured into 35-mm tissue culture dishes 1 day before transfection. PolyFect transfection reagent (QIAGEN) was used to cotransfect CFTR cDNA and pEGFP-C3 (Takara Bio Inc.), which encodes green fluorescence proteins, into CHO cells. After transfection, cells were incubated at 27° C. for at least 2 days before electrophysiological experiments were performed.
(§3) Glass chips carrying the transfected cells were transferred to a chamber located on the stage of an inverted microscope (IX51; Olympus). Borosilicate capillary glasses were used to make patch pipettes using a two-stage micropipette puller (PP-81, Narishige, Japan). The pipettes were polished with a homemade microforge to a resistance of 2-4 MΩ in the bath solution. Once the seal resistance reached >40 GΩ, membrane patches were excised into an inside-out mode. Subsequently, the pipette was moved to the outlet of a three-barrel perfusion system and perfused with 25 IU PKA and 2 mM ATP until the CFTR current reached a steady state. A patch-clamp amplifier (EPC10, HEKA, Germany) was used to record electrophysiological data at room temperature. The data were filtered online at 100 Hz with an eight-pole Bessel filter (LPF-8; Warner Instruments) and digitized to a computer at a sampling rate of 500 Hz. […] Membrane potential was held at −30 or −50 mV for all recordings.
(§4) Disease-causing mutations (G551D and delF508) were made with PCR-based site-directed mutagenesis using the Pfu Ultra II (Agilent Technologies). […] The cDNA constructs of CFTR (G551D and delF508) were co-transfected with peGFP-C3 (Takara Bio Inc.) encoding the green fluorescent protein into CHO cells using PolyFect transfection reagent (QIAGEN). The transfected cells were transferred into 35 mm tissue culture dishes containing one layer of sterilized glass chips for cells to grow on. The transfected cells were incubated at 27° C. for 2-7 days before electrophysiological experiments were performed.
(§5) All patch-clamp experiments were carried out in the excised inside-out configuration. Micropipettes made of borosilicate capillary glass were pulled with a two-stage vertical puller (Narishige) and then fire-polished with a homemade microforge to reach a pipet resistance of 2-4 MΩ when the pipettes were filled with a standard inside-out pipet solution that contains: 140 mM N-Methyl-D-glucamine-Cl (NMDG-Cl), 2 mM MgCl2, 5 mM CaCl2) and 10 mM HEPES, adjusted to pH 7.4 with NMDG.

G551D-CFTR [3] = target: T2, G551D-CFTR (Homo sapiens, UniProt P13569, G551D); conditions: cited from earlier work
T2 construct: The cDNA constructs of CFTR (G551D and delF508) were co-transfected with peGFP-C3; expressed in transfected cells; host or cells: CHO cells (ATCC), transient co-transfection with pEGFP-C3 (GFP as a separate marker, not fused)
T2 sequence (P13569 whole entry G551D, the tested form may be a part): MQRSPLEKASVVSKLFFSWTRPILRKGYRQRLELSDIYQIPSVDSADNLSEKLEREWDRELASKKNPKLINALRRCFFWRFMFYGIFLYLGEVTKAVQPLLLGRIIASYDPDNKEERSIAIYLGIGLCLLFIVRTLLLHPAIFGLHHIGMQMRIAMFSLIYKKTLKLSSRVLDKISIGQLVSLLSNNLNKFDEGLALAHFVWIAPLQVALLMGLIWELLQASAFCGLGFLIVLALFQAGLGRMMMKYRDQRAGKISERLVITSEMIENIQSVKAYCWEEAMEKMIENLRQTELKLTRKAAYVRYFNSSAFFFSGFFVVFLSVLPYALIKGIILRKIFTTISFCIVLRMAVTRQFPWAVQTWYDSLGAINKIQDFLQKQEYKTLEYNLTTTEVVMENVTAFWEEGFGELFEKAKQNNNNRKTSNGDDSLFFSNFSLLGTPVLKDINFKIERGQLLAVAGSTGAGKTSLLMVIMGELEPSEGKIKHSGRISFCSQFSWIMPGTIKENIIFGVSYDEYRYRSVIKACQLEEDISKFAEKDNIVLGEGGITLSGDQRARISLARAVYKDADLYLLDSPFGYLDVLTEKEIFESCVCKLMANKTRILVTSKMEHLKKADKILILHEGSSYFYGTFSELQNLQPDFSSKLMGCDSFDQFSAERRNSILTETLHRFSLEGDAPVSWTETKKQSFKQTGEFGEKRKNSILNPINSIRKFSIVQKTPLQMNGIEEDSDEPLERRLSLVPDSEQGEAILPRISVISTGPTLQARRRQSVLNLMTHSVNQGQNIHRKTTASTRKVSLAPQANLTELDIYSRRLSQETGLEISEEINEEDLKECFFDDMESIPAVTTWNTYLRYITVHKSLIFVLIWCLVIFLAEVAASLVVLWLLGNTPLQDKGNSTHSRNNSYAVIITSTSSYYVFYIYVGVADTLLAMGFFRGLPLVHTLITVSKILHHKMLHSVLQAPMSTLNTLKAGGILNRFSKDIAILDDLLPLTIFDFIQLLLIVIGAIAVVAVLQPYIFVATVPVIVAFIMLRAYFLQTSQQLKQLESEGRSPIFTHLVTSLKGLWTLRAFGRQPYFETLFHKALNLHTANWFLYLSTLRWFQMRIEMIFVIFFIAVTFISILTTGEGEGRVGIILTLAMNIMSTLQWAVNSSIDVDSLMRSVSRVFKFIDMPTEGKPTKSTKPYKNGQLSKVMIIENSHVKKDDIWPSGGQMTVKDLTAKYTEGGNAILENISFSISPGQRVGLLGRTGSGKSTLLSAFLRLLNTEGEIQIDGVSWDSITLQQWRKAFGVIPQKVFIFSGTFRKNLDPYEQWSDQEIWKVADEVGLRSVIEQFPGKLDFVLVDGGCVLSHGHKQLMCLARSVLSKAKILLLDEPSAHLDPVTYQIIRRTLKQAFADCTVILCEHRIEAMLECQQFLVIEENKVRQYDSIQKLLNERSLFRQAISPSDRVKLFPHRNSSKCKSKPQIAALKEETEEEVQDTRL

G551D-CFTR [4] = target: T2, G551D-CFTR; assay: Patch-clamp recording of G551D-CFTR currents in excised inside-out patches of transfected CHO cells; assay type: cell-based
Excerpt: as §1, §2, §3, §4, §5

Q: Which “Po of delF508-CFTR in the presence of Ivacaftor” value (delF508-CFTR [1]) does the source give for `CC(C)(C)c1cc(C(C)(C)C)c(NC(=O)c2c[nH]c3ccccc3c2=O)cc1O` [VX-770, Ivacaftor, reference compound] here?
A: above 0.4

Q: And the “fold increase of mean delF508-CFTR current” value (delF508-CFTR [2]; 200 nM VX-770 alone)?
A: ~10 folds

Q: What about the “rundown of delF508-CFTR current in the presence of the compound” value (delF508-CFTR [2]; real-time current trace, FIG. 10) of the same compound?
A: immediately starts to decline

Q: And the “increase of the Po of G551D-CFTR” value (G551D-CFTR [3]; Jih et al., PNAS 2013)?
A: 8-10 folds

Q: What about the “function of G551D-CFTR relative to wild-type / normal” value (G551D-CFTR [3]; with Ivacaftor, literature) of the same compound?
A: < 10% and ~10%

Q: And the “fold increase of mean G551D-CFTR current” value (G551D-CFTR [4]; 200 nM VX-770 alone)?
A: around 10 folds

Q: What about the “effect on G551D-CFTR currents, compound alone” value (G551D-CFTR [4]; after activation by PKA and ATP) of the same compound?
A: increased the current to approximately the same level as LZH-00014
